Experimental data reported in the Kinase Knowledgebase extract (Sharma et al. 2016).

biological target: CDK2 (UniProt P24941); test: Enzyme Assay; conditions: concentration not given here

For `CCC(C)CN(CCO)C(=O)c1ccc(Nc2nc(N)c(C(=O)c3c(F)cccc3F)s2)cc1` (stereo unspecified), which inhibition is on record?
Its inhibition is -11%.

How did the inhibition turn out when `Nc1nc(Nc2ccc(C(=O)Nc3cccc(Br)c3)cc2)sc1C(=O)c1c(F)cccc1F` was run?
The inhibition was -8%.

`Nc1nc(Nc2ccc(C(=O)N(CCCCO)Cc3ccccc3)cc2)sc1C(=O)c1c(F)cccc1F` was tested. Which inhibition did it give?
Its inhibition is 0%.

With `CCCCN(Cc1ccccc1)C(=O)c1ccc(Nc2nc(N)c(C(=O)c3c(F)cccc3F)s2)cc1` as the compound, how does the inhibition read?
Its inhibition is -17%.

For `N#CCCN(Cc1cccnc1)C(=O)c1ccc(Nc2nc(N)c(C(=O)c3c(F)cccc3F)s2)cc1`, which inhibition is on record?
Its inhibition is -2%.

With `COC(CN(C)C(=O)c1ccc(Nc2nc(N)c(C(=O)c3c(F)cccc3F)s2)cc1)OC` as the compound, how does the inhibition read?
The inhibition was -7%.

`Nc1nc(Nc2ccc(C(=O)NCCc3ccncc3)cc2)sc1C(=O)c1c(F)cccc1F` was tested. Which inhibition did it give?
Its inhibition is -11%.

`Nc1nc(Nc2ccc(C(=O)Nc3ccc4ncsc4c3)cc2)sc1C(=O)c1c(F)cccc1F` was tested. Which inhibition did it give?
The inhibition was 13%.

`Nc1nc(Nc2ccc(C(=O)NCCCN3CCCC3=O)cc2)sc1C(=O)c1c(F)cccc1F` was tested. Which inhibition did it give?
Its inhibition is -23%.

Which inhibition does the source give for `Cc1nccc(-c2cccc(NC(=O)c3ccc(Nc4nc(N)c(C(=O)c5c(F)cccc5F)s4)cc3)c2)n1` here?
The inhibition was -40%.

`Nc1nc(Nc2ccc(C(=O)N3CCN(CCCO)CC3)cc2)sc1C(=O)c1c(F)cccc1F` was tested. Which inhibition did it give?
Its inhibition is -14%.

For `CC(C)(C)C1CCC(NC(=O)c2ccc(Nc3nc(N)c(C(=O)c4c(F)cccc4F)s3)cc2)CC1` (stereo unspecified), which inhibition is on record?
The inhibition was -23%.

With `COc1ccc(C(=O)NC(=O)c2ccc(Nc3nc(N)c(C(=O)c4c(F)cccc4F)s3)cc2)cc1N` as the compound, how does the inhibition read?
The inhibition was 15%.

How did the inhibition turn out when `CC(=O)N[C@@H]1CCN(C(=O)c2ccc(Nc3nc(N)c(C(=O)c4c(F)cccc4F)s3)cc2)C1` was run?
Its inhibition is -7%.

With `Nc1nc(Nc2ccc(C(=O)NC3CC3)cc2)sc1C(=O)c1c(F)cccc1F` as the compound, how does the inhibition read?
The inhibition was -5%.

How did the inhibition turn out when `Nc1nc(Nc2ccc(C(=O)N3CCC(CO)CC3)cc2)sc1C(=O)c1c(F)cccc1F` was run?
Its inhibition is -14%.

With `C=C(C)CN(C)C(=O)c1ccc(Nc2nc(N)c(C(=O)c3c(F)cccc3F)s2)cc1` as the compound, how does the inhibition read?
Its inhibition is -2%.

Which inhibition does the source give for `CC(C)NC(=O)c1ccc(Nc2nc(N)c(C(=O)c3c(F)cccc3F)s2)cc1` here?
Its inhibition is -10%.

How did the inhibition turn out when `CC(=O)c1ccc(NC(=O)c2ccc(Nc3nc(N)c(C(=O)c4c(F)cccc4F)s3)cc2)cc1` was run?
Its inhibition is -5%.

`CC(=O)N(C)C1CCN(C(=O)c2ccc(Nc3nc(N)c(C(=O)c4c(F)cccc4F)s3)cc2)C1` (stereo unspecified) was tested. Which inhibition did it give?
Its inhibition is -21%.

`Cc1ccc(NC(=O)c2ccc(Nc3nc(N)c(C(=O)c4c(F)cccc4F)s3)cc2)c(F)c1` was tested. Which inhibition did it give?
Its inhibition is -30%.

Which inhibition does the source give for `Nc1nc(Nc2ccc(C(=O)NCC(O)CO)cc2)sc1C(=O)c1c(F)cccc1F` (stereo unspecified) here?
Its inhibition is -2%.

Which inhibition does the source give for `COC(=O)c1ccccc1NC(=O)c1ccc(Nc2nc(N)c(C(=O)c3c(F)cccc3F)s2)cc1` here?
Its inhibition is -4%.

How did the inhibition turn out when `CCCCN(CC#N)C(=O)c1ccc(Nc2nc(N)c(C(=O)c3c(F)cccc3F)s2)cc1` was run?
Its inhibition is -1%.

How did the inhibition turn out when `N#CCCSc1ccccc1NC(=O)c1ccc(Nc2nc(N)c(C(=O)c3c(F)cccc3F)s2)cc1` was run?
The inhibition was -14%.

For `Nc1nc(Nc2ccc(C(=O)Nc3ccc(Cl)cc3CO)cc2)sc1C(=O)c1c(F)cccc1F`, which inhibition is on record?
The inhibition was -11%.

For `N#CCCN(Cc1ccccc1)C(=O)c1ccc(Nc2nc(N)c(C(=O)c3c(F)cccc3F)s2)cc1`, which inhibition is on record?
The inhibition was 0%.

With `Cc1cc(C)cc(NC(=O)c2ccc(Nc3nc(N)c(C(=O)c4c(F)cccc4F)s3)cc2)c1` as the compound, how does the inhibition read?
Its inhibition is -3%.

For `CCOCCNC(=O)c1ccc(Nc2nc(N)c(C(=O)c3c(F)cccc3F)s2)cc1`, which inhibition is on record?
The inhibition was -4%.

For `Nc1nc(Nc2ccc(C(=O)N[C@H](CO)CC3CCCCC3)cc2)sc1C(=O)c1c(F)cccc1F`, which inhibition is on record?
Its inhibition is -7%.

For `CCSCCNC(=O)c1ccc(Nc2nc(N)c(C(=O)c3c(F)cccc3F)s2)cc1`, which inhibition is on record?
The inhibition was -6%.

Which inhibition does the source give for `CCN(CC)CCN1CCN(C(=O)c2ccc(Nc3nc(N)c(C(=O)c4c(F)cccc4F)s3)cc2)CC1` here?
Its inhibition is -10%.

How did the inhibition turn out when `CN(C)CCCN1CCN(C(=O)c2ccc(Nc3nc(N)c(C(=O)c4c(F)cccc4F)s3)cc2)CC1` was run?
Its inhibition is -14%.

For `Nc1nc(Nc2ccc(C(=O)NCCC3OCCO3)cc2)sc1C(=O)c1c(F)cccc1F`, which inhibition is on record?
Its inhibition is -10%.

With `CCN(C(=O)c1ccc(Nc2nc(N)c(C(=O)c3c(F)cccc3F)s2)cc1)C1CCCCC1` as the compound, how does the inhibition read?
The inhibition was -10%.

With `CN(Cc1ccccc1)C(=O)c1ccc(Nc2nc(N)c(C(=O)c3c(F)cccc3F)s2)cc1` as the compound, how does the inhibition read?
Its inhibition is -1%.

For `CN(Cc1ccccc1Cl)C(=O)c1ccc(Nc2nc(N)c(C(=O)c3c(F)cccc3F)s2)cc1`, which inhibition is on record?
Its inhibition is -30%.

Which inhibition does the source give for `Cc1cccc(CN(C)C(=O)c2ccc(Nc3nc(N)c(C(=O)c4c(F)cccc4F)s3)cc2)n1` here?
Its inhibition is -1%.

Which inhibition does the source give for `Nc1nc(Nc2ccc(C(=O)NCCCCO)cc2)sc1C(=O)c1c(F)cccc1F` here?
The inhibition was -12%.

How did the inhibition turn out when `CN(CC(O)CO)C(=O)c1ccc(Nc2nc(N)c(C(=O)c3c(F)cccc3F)s2)cc1` (stereo unspecified) was run?
The inhibition was 0%.

Which inhibition does the source give for `CCCCN(CCCC)C(=O)c1ccc(Nc2nc(N)c(C(=O)c3c(F)cccc3F)s2)cc1` here?
Its inhibition is -7%.
